Measurements taken from patent US20250154144A1 (CHILDREN'S HOSPITAL MEDICAL CENTER, priority 2021, published 2025).
Read-outs that look alike come from different tables or passages of the source.

What was measured:
[1] = tested on: THP1 cells; assay: Combination drug screening, Cell Titer Glo, 10 × 10 matrix, THP1 cells; type: cell-based
[2] = tested on: MOLM14(D835Y) cells; type: cell-based; settings: MOLM14(D835Y), 10 × 10
[3] = starting conc. 200 nM, with (+)-BAY-1251152 starting conc. 1000 nM
[4] = starting conc. 200 nM, with Azacitidine (5-Azacytidine) starting conc. 20000 nM
[5] = starting conc. 200 nM, with Palbociclib starting conc. 10000 nM
[6] = starting conc. 200 nM, with Prednisolone starting conc. 10000 nM
[7] = starting conc. 200 nM, with TNO-155 starting conc. 10000 nM
[8] = starting conc. 200 nM, with Venetoclax (ABT-199) starting conc. 2000 nM
[9] = starting conc. 200 nM, with Venetoclax (ABT-199) starting conc. 20000 nM
[10] = starting conc. 20000 nM, with (+)-BAY-1251152 starting conc. 1000 nM
[11] = starting conc. 20000 nM, with Azacitidine (5-Azacytidine) starting conc. 20000 nM
[12] = starting conc. 20000 nM, with Palbociclib starting conc. 10000 nM
[13] = starting conc. 20000 nM, with Prednisolone starting conc. 10000 nM
[14] = starting conc. 20000 nM, with TNO-155 starting conc. 10000 nM
[15] = starting conc. 20000 nM, with Venetoclax (ABT-199) starting conc. 2000 nM
[16] = starting conc. 20000 nM, with Venetoclax (ABT-199) starting conc. 20000 nM
[17] = title compound starting conc. 20000 nM + (+)-BAY-1251152 starting conc. 1000 nM
[18] = title compound starting conc. 20000 nM + Azacitidine (5-Azacytidine) starting conc. 20000 nM
[19] = title compound starting conc. 20000 nM + Palbociclib starting conc. 10000 nM
[20] = title compound starting conc. 20000 nM + Prednisolone starting conc. 10000 nM
[21] = title compound starting conc. 20000 nM + TNO-155 starting conc. 10000 nM
[22] = title compound starting conc. 20000 nM + Venetoclax (ABT-199) starting conc. 2000 nM
[23] = title compound starting conc. 20000 nM + Venetoclax (ABT-199) starting conc. 20000 nM

Cc1cnc(-c2ccc(-c3ccc(NC(=O)Nc4c(F)cc(F)cc4F)cc3F)c3c2C(=O)NC3)[nH]1 [CG-806, reference compound]
Comments [1, 3]: Synergistic at both | Excess HSA Score [1, 3]: −467.1 | Comments [1, 4]: Antagonistic | Excess HSA Score [1, 4]: 45.86 | Comments [1, 5]: Antagonistic | Excess HSA Score [1, 5]: 74.09 | Comments [1, 6]: Synergistic | Excess HSA Score [1, 6]: −30.78 | Comments [1, 7]: Antagonistic | Excess HSA Score [1, 7]: 12.04 | Comments [1, 8]: Synergistic; Optimal | Excess HSA Score [1, 8]: −1194 | Comments [1, 9]: Synergistic; Optimal | Excess HSA Score [1, 9]: −1904 | Comments [1, 10]: Synergistic at both | Excess HSA Score [1, 10]: −821.7 | Comments [1, 11]: Synergistic | Excess HSA Score [1, 11]: −425.4 | Comments [1, 12]: Synergistic | Excess HSA Score [1, 12]: −65.24 | Comments [1, 13]: Antagonistic | Excess HSA Score [1, 13]: 185.6 | Comments [1, 14]: Synergistic | Excess HSA Score [1, 14]: −333.2 | Comments [1, 15]: Synergistic; Optimal | Excess HSA Score [1, 15]: −9.516 | Comments [1, 16]: Synergistic; Optimal | Excess HSA Score [1, 16]: −1150 | Excess HSA Score ([2]; title compound starting conc. 200 nM + (+)-BAY-1251152 starting conc. 1000 nM): −340.1 | Excess HSA Score ([2]; title compound starting conc. 200 nM + Azacitidine (5-Azacytidine) starting conc. 20000 nM): −208.9 | Excess HSA Score ([2]; title compound starting conc. 200 nM + Palbociclib starting conc. 10000 nM): −828 | Excess HSA Score ([2]; title compound starting conc. 200 nM + Prednisolone starting conc. 10000 nM): −264.6 | Excess HSA Score ([2]; title compound starting conc. 200 nM + TNO-155 starting conc. 10000 nM): −776.6 | Excess HSA Score ([2]; title compound starting conc. 200 nM + Venetoclax (ABT-199) starting conc. 2000 nM): −1066 | Excess HSA Score ([2]; title compound starting conc. 200 nM + Venetoclax (ABT-199) starting conc. 20000 nM): −258.9 | Excess HSA Score [2, 17]: −150.9 | Excess HSA Score [2, 18]: −51.33 | Excess HSA Score [2, 19]: −199.1 | Excess HSA Score [2, 20]: 107.5 | Excess HSA Score [2, 21]: −286.9 | Excess HSA Score [2, 22]: −481.6 | Excess HSA Score [2, 23]: −139.4

CCc1nc(C(N)=O)c(Nc2ccc(N3CCC(N4CCN(C)CC4)CC3)c(OC)c2)nc1NC1CCOCC1 [Gilteritinib hemifumarate, Gilteritinib, reference compound]
Excess HSA Score ([1]; starting conc. 500 nM, with (+)-BAY-1251152 starting conc. 1000 nM): −10.1945 | Excess HSA Score ([1]; starting conc. 500 nM, with Azacitidine (5-Azacytidine) starting conc. 20000 nM): −354.4 | Excess HSA Score ([1]; starting conc. 500 nM, with Palbociclib starting conc. 10000 nM): −228 | Excess HSA Score ([1]; starting conc. 500 nM, with Prednisolone starting conc. 10000 nM): 119.9 | Excess HSA Score ([1]; starting conc. 500 nM, with TNO-155 starting conc. 10000 nM): 15.34 | Excess HSA Score ([1]; starting conc. 500 nM, with Venetoclax (ABT-199) starting conc. 2000 nM): −95.51 | Excess HSA Score ([1]; starting conc. 500 nM, with Venetoclax (ABT-199) starting conc. 20000 nM): −866.3 | Excess HSA Score [1, 10]: −484.1 | Excess HSA Score [1, 11]: −391.5 | Excess HSA Score [1, 12]: −415 | Excess HSA Score [1, 13]: −149.2201 | Excess HSA Score [1, 14]: −398.3 | Excess HSA Score [1, 15]: −448 | Excess HSA Score [1, 16]: −1390 | Excess HSA Score ([2]; title compound starting conc. 500 nM + (+)-BAY-1251152 starting conc. 1000 nM): 161.1 | Excess HSA Score ([2]; title compound starting conc. 500 nM + Azacitidine (5-Azacytidine) starting conc. 20000 nM): −848 | Excess HSA Score ([2]; title compound starting conc. 500 nM + Palbociclib starting conc. 10000 nM): −910.3 | Excess HSA Score ([2]; title compound starting conc. 500 nM + Prednisolone starting conc. 10000 nM): −285.8 | Excess HSA Score ([2]; title compound starting conc. 500 nM + TNO-155 starting conc. 10000 nM): −773.9 | Excess HSA Score ([2]; title compound starting conc. 500 nM + Venetoclax (ABT-199) starting conc. 2000 nM): −704 | Excess HSA Score ([2]; title compound starting conc. 500 nM + Venetoclax (ABT-199) starting conc. 20000 nM): −237.3 | Excess HSA Score [2, 17]: 43.97 | Excess HSA Score [2, 18]: −117 | Excess HSA Score [2, 19]: −262.1121 | Excess HSA Score [2, 20]: −290.6 | Excess HSA Score [2, 21]: −494.5 | Excess HSA Score [2, 22]: −876.4 | Excess HSA Score [2, 23]: −271.3
